Source: ChEMBL document CHEMBL4229455, “Synthesis and anticancer activity of novel bisindolylhydroxymaleimide derivatives with potent GSK-3 kinase inhibition” (Bioorg Med Chem, 2018)

How the values were obtained:
KM12 [1] = experiment: Cytotoxicity against human KM12 cells after 48 hrs by SRB assay; type: functional; conditions: KM12, 48 h
[2] = target: Dual specificity tyrosine-phosphorylation-regulated kinase 1A (Rattus norvegicus) (UniProt Q63470); experiment: Inhibition of recombinant rat DYRK1A kinase domain expressed in bacteria assessed as residual activity at 10 uM using KKISGRLSPIMTEQ as substrate in presence of [gamma-33P]ATP
HCT-116 = experiment: Cytotoxicity against human HCT116 cells assessed as cell growth at 10 uM after 48 hrs by SRB assay relative to control; type: functional; conditions: HCT-116, 48 h, read-out: Activity
SN12C = experiment: Cytotoxicity against human SN12C cells assessed as cell growth at 0.01 uM after 48 hrs by SRB assay relative to control; type: functional; conditions: read-out: Activity
RPMI-8226 = experiment: Cytotoxicity against human RPMI8226 cells assessed as cell growth at 10 uM after 48 hrs by SRB assay relative to control; type: functional; conditions: RPMI-8226, 48 h, read-out: Activity
SK-OV-3 [3] = experiment: Cytotoxicity against human SKOV3 cells assessed as cell growth at 10 uM after 48 hrs by SRB assay relative to control; type: functional; conditions: SK-OV-3, 48 h, read-out: Activity
SK-OV-3 [4] = experiment: Cytotoxicity against human SKOV3 cells after 48 hrs by SRB assay; type: functional; conditions: SK-OV-3, 48 h
T47D [5] = experiment: Cytotoxicity against human T47D cells assessed as cell growth at 10 uM after 48 hrs by SRB assay relative to control; type: functional; conditions: read-out: Activity
OVCAR-3 = experiment: Cytotoxicity against human OVCAR3 cells assessed as cell growth at 10 uM after 48 hrs by SRB assay relative to control; type: functional; conditions: OVCAR-3, 48 h, read-out: Activity
NCI-H322M = experiment: Cytotoxicity against human NCI-H322M cells assessed as cell growth at 10 uM after 48 hrs by SRB assay relative to control; type: functional; conditions: read-out: Activity
HOP-62 = experiment: Cytotoxicity against human HOP62 cells assessed as cell growth at 10 uM after 48 hrs by SRB assay relative to control; type: functional; conditions: HOP-62, 48 h, read-out: Activity
MOLT-4 = experiment: Cytotoxicity against human MOLT4 cells assessed as cell growth at 10 uM after 48 hrs by SRB assay relative to control; type: functional; conditions: MOLT-4, 48 h, read-out: Activity
[6] = target: Receptor-interacting serine/threonine-protein kinase 3 (Homo sapiens, UniProt Q9Y572); experiment: Inhibition of recombinant full length human RIPK3 expressed in baculovirus infected Sf9 insect cells using MBP as substrate in presence of [gamma-33P]ATP
Receptor-interacting serine/threonine-protein kinase 3, sequence (Q9Y572 whole entry): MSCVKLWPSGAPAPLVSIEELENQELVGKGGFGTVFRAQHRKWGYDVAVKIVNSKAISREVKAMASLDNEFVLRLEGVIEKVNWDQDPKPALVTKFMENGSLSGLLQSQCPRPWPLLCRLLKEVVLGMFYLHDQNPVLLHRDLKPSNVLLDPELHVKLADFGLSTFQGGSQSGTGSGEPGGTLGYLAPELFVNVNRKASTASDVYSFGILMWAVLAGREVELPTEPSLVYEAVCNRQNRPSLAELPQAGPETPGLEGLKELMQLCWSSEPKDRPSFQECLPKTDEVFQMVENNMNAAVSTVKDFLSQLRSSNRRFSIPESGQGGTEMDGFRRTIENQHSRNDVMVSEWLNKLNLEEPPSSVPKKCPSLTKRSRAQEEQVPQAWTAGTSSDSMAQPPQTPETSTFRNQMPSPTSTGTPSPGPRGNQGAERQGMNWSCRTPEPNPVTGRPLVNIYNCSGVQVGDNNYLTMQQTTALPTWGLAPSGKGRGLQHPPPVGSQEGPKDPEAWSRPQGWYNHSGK

[7] = Inhibition of domestic porcine brain full length […] using RRKHAAIGSpAYSITA as substrate in presence of [gamma-33P]ATP; set-up: species or system Sus scrofa domesticus
OVCAR-8 [8] = experiment: Cytotoxicity against human OVCAR8 cells assessed as cell growth at 0.01 uM after 48 hrs by SRB assay relative to control; type: functional; conditions: OVCAR-8, 48 h, read-out: Activity
ACHN = experiment: Cytotoxicity against human ACHN cells assessed as cell growth at 10 uM after 48 hrs by SRB assay relative to control; type: functional; conditions: read-out: Activity
K562 [9] = experiment: Cytotoxicity against human K562 cells assessed as cell growth at 10 uM after 48 hrs by SRB assay relative to control; type: functional; conditions: K562, 48 h, read-out: Activity
HT-29 = experiment: Cytotoxicity against human HT-29 cells assessed as cell growth at 10 uM after 48 hrs by SRB assay relative to control; type: functional; conditions: HT-29, 48 h, read-out: Activity
SF-268 = experiment: Cytotoxicity against human SF268 cells assessed as cell growth at 0.1 uM after 48 hrs by SRB assay relative to control; type: functional; conditions: SF-268, 48 h, read-out: Activity
[10] = target: Cyclin-dependent kinase 5/CDK5 activator 1 (Homo sapiens, UniProt Q00535); experiment: Inhibition of recombinant full length human CDK5/p25 expressed in bacteria using histone H1 as substrate in presence of [gamma-33P]ATP
Cyclin-dependent kinase 5/CDK5 activator 1, sequence (Q00535 whole entry): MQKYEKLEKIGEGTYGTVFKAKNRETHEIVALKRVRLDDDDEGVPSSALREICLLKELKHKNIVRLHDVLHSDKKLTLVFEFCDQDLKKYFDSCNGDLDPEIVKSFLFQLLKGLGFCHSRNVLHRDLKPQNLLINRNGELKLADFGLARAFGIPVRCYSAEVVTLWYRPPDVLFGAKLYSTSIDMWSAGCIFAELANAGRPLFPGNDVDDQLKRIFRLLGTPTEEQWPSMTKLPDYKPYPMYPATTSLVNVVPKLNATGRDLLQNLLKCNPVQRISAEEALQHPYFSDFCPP
Cyclin-dependent kinase 5/CDK5 activator 1, sequence (Q15078 whole entry, further chain): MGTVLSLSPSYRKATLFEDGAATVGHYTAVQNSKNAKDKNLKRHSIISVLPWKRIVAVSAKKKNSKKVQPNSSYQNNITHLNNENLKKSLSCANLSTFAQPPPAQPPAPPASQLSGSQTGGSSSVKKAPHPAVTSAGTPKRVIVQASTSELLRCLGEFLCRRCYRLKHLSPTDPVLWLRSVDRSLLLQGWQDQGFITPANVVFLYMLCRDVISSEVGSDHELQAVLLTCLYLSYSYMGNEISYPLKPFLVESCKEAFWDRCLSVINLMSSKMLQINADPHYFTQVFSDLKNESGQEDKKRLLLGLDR

SNB-19 = experiment: Cytotoxicity against human SNB19 cells assessed as cell growth at 100 uM after 48 hrs by SRB assay relative to control; type: functional; conditions: SNB-19, 48 h, read-out: Activity
UO-31 = experiment: Cytotoxicity against human UO31 cells assessed as cell growth at 10 uM after 48 hrs by SRB assay relative to control; type: functional; conditions: UO-31, 48 h, read-out: Activity
SF-295 = experiment: Cytotoxicity against human SF295 cells assessed as cell growth at 10 uM after 48 hrs by SRB assay relative to control; type: functional; conditions: SF-295, 48 h, read-out: Activity
OVCAR-8 [11] = experiment: Cytotoxicity against human OVCAR8 cells assessed as cell growth at 10 uM after 48 hrs by SRB assay relative to control; type: functional; conditions: OVCAR-8, 48 h, read-out: Activity
RXF 393 = experiment: Cytotoxicity against human RXF393 cells assessed as cell growth at 10 uM after 48 hrs by SRB assay relative to control; type: functional; conditions: RXF 393, 48 h, read-out: Activity
NCI/ADR-RES = experiment: Cytotoxicity against human NCI-ADR-RES cells assessed as cell growth at 0.01 uM after 48 hrs by SRB assay relative to control; type: functional; conditions: read-out: Activity
Hs-578T = experiment: Cytotoxicity against human Hs 578T cells assessed as cell growth at 10 uM after 48 hrs by SRB assay relative to control; type: functional; conditions: read-out: Activity
786-0 = experiment: Cytotoxicity against human 786-O cells assessed as cell growth at 10 uM after 48 hrs by SRB assay relative to control; type: functional; conditions: 786-0, 48 h, read-out: Activity
T47D [12] = experiment: Cytotoxicity against human T47D cells assessed as cell growth at 0.01 uM after 48 hrs by SRB assay relative to control; type: functional; conditions: read-out: Activity
TK-10 = experiment: Cytotoxicity against human TK10 cells after 48 hrs by SRB assay; type: functional; conditions: TK-10, 48 h; for CC50: read-out: LC50 (the source's name)
M14 = experiment: Cytotoxicity against human M14 cells assessed as cell growth at 10 uM after 48 hrs by SRB assay relative to control; type: functional; conditions: M14, 48 h, read-out: Activity
K562 [13] = experiment: Cytotoxicity against human K562 cells after 48 hrs by SRB assay; type: functional; conditions: K562, 48 h
MDA-MB-231 = experiment: Cytotoxicity against human MDA-MB-231 cells assessed as cell growth at 0.01 uM after 48 hrs by SRB assay relative to control; type: functional; conditions: MDA-MB-231, 48 h, read-out: Activity
KM12 [14] = experiment: Cytotoxicity against human KM12 cells assessed as cell growth at 0.01 uM after 48 hrs by SRB assay relative to control; type: functional; conditions: KM12, 48 h, read-out: Activity
EKVX = experiment: Cytotoxicity against human EKVX cells assessed as cell growth at 10 uM after 48 hrs by SRB assay relative to control; type: functional; conditions: read-out: Activity
HL-60(TB) = experiment: Cytotoxicity against human HL-60(TB) cells assessed as cell growth at 10 uM after 48 hrs by SRB assay relative to control; type: functional; conditions: HL-60, 48 h, read-out: Activity

N#CCCCCCn1cc(C2=C(c3cn(CCCCCC#N)c4ccccc34)C(=O)N(O)C2=O)c2ccccc21
GI50 (KM12 [1]): 4.78 µM
LC50 (KM12 [1]): > 100 µM
TGI (KM12 [1]): 33.1 µM
Activity [2]: 38%
growth at 10 µM (HCT-116): 21 to 63.3%
growth at 0.01 µM (SN12C): 97%
growth at 10 µM (RPMI-8226): 39.1%
growth at 10 µM (SK-OV-3 [3]): 45 to 78.5%
GI50 (SK-OV-3 [4]): 7.78 µM
LC50 (SK-OV-3 [4]): > 100 µM
TGI (SK-OV-3 [4]): > 100 µM
growth at 10 µM (T47D [5]): 26 to 65.5%
growth at 10 µM (OVCAR-3): 13 to 50.6%
growth at 10 µM (NCI-H322M): 45 to 92.3%
growth at 10 µM (HOP-62): 45 to 66.5%
growth at 10 µM (MOLT-4): 10 to 49.4%
IC50 [6]: > 10 µM
IC50 [7]: > 10 µM
growth at 0.01 µM (OVCAR-8 [8]): 99%
growth at 10 µM (ACHN): 45 to 81.7%
growth at 10 µM (K562 [9]): 15 to 33.9%
growth at 10 µM (HT-29): 51 to 92.4%
growth at 0.1 µM (SF-268): 95%
IC50 [10]: > 10 µM
growth at 100 µM (SNB-19): 20%
growth at 10 µM (UO-31): 23 to 43.8%
growth at 10 µM (SF-295): 35 to 85%
growth at 10 µM (OVCAR-8 [11]): 55 to 87.6%
growth at 10 µM (RXF 393): 2 to 73.2%
growth at 0.01 µM (NCI/ADR-RES): 100%
growth at 10 µM (Hs-578T): 25 to 80%
growth at 10 µM (786-0): 51 to 78.7%
growth at 0.01 µM (T47D [12]): 99%
GI50 (TK-10): 22.2 µM
TGI (TK-10): > 100 µM
CC50 (TK-10): > 100 µM
growth at 10 µM (M14): 28 to 73.4%
GI50 (K562 [13]): 3.59 µM
LC50 (concentration killing 50% of cells) (K562 [13]): > 100 µM
TGI (K562 [13]): > 100 µM
growth at 0.01 µM (MDA-MB-231): 96%
growth at 0.01 µM (KM12 [14]): 97%

Cn1cc(C2=C(c3cn(C)c4ncccc34)C(=O)NC2=O)c2ccccc21
GI50 (KM12 [1]): 2.89 µM
TGI (KM12 [1]): 13.4 µM
Activity [2]: 30%
growth at 10 µM (HCT-116): 15 to 21.9%
growth at 0.01 µM (SN12C): 89%
growth at 10 µM (RPMI-8226): 45.4%
GI50 (SK-OV-3 [4]): 2.09 µM
TGI (SK-OV-3 [4]): 8 µM
growth at 10 µM (T47D [5]): 10 to 24.2%
growth at 10 µM (OVCAR-3): 25 to 50.2%
growth at 10 µM (HOP-62): 21 to 40.6%
growth at 10 µM (MOLT-4): 8 to 12.6%
IC50 [6]: > 10 µM
IC50 [7]: > 10 µM
growth at 0.01 µM (OVCAR-8 [8]): 105%
growth at 10 µM (ACHN): 8 to 26.5%
growth at 10 µM (K562 [9]): 16 to 19.9%
growth at 10 µM (HT-29): 2.28 to 5%
growth at 0.1 µM (SF-268): 102%
IC50 [10]: 0.8 µM
growth at 10 µM (EKVX): 9 to 62.7%
growth at 100 µM (SNB-19): -11%
growth at 10 µM (UO-31): 12 to 22.6%
growth at 10 µM (SF-295): 9.52%
growth at 10 µM (OVCAR-8 [11]): 23 to 53.8%
growth at 0.01 µM (NCI/ADR-RES): 101%
growth at 10 µM (786-0): 12%
growth at 10 µM (HL-60(TB)): 3.55 to 9%
growth at 0.01 µM (T47D [12]): 89%
GI50 (TK-10): 4.82 µM
TGI (TK-10): 43.9 µM
CC50 (TK-10): > 100 µM
growth at 10 µM (M14): 7 to 17.5%
GI50 (K562 [13]): 2.74 µM
TGI (K562 [13]): > 100 µM
growth at 0.01 µM (MDA-MB-231): 99%
growth at 0.01 µM (KM12 [14]): 102%
